The nature of the data set: photoluminescence quantum yield (fraction); solvent given as SMILES.

For `COc1ccc(C2=CC(c3ccc4ccccc4c3)=[O+][B-](C(C)=O)(C(C)=O)O2)cc1`, the photoluminescence quantum yield stood at 0.6 (in CC#N) and 0.8 (in ClC(Cl)(Cl)Cl).
`Fc1ccc(-c2c3ccccc3nc3cc4ccccc4cc23)cc1` had a photoluminescence quantum yield (in ClCCl) of 0.48.
Consider `C=Cc1cc2cc3c(cc2oc1=O)OCO3`, for which the photoluminescence quantum yield (in CC#N) was 0.65.
With `CCC1=C(C)C(=O)n2c1cc1c(CCC(=O)OC)c(C)c(C)n1c2=O`, the photoluminescence quantum yield runs as follows: (in CO) 0.82; (in CS(C)=O) 1; (in ClC(Cl)Cl) 0.95; (in c1ccccc1) 1.
For the compound `N#CC(C#N)=Cc1ccc(-c2ccc(-c3nc4ccccc4s3)c(O)c2)o1`, the photoluminescence quantum yield (in CCO) amounted to 0.0089, the photoluminescence quantum yield (in ClCCl) worked out at 0.0121 and the photoluminescence quantum yield (in O) stood at 0.01.
As for `CCCCN1/C(=C/C=C/C2=[N+](C)c3ccccc3C2(C)C)C(C)(C)c2cc(OC)ccc21`, for the setting “in CS(C)=O”, the photoluminescence quantum yield is 0.03.
`N#Cc1nc2cnc(N)nc2n1Cc1ccccc1` registered a photoluminescence quantum yield (in C1COCCO1) of 0.34; a photoluminescence quantum yield (in CC#N) of 0.31; a photoluminescence quantum yield (in CO) of 0.64; a photoluminescence quantum yield (in ClCCl) of 0.2; a photoluminescence quantum yield (in O) of 0.88.
`CN(C)c1ccc(-c2nc(-c3ccccc3)c3ccccn23)cc1` showed a photoluminescence quantum yield (in ClCCl) of 0.12.
`CN(C)c1ccc2nc(-c3ccc(/C=N/c4ccccc4)cc3)sc2c1`: the photoluminescence quantum yield is 0.057 (in C1CCCCC1), 0.72 (in CC#N), 0.067 (in CO) and 0.12 (in ClC(Cl)Cl).
`COc1cc(/C=C/c2nc3ccccc3s2)c(OC)cc1/C=C/c1ccncc1`: the photoluminescence quantum yield came to 0.75 (in C1CCOC1), 0.5 (in CC#N), 0.67 (in CN(C)C=O) and 0.86 (in Cc1ccccc1).
On to `COC1=[N+]2C(=C(c3ccccc3)c3ccc(OC)n3[B-]2(F)F)C=C1SC#N`, for which the photoluminescence quantum yield runs as follows: (in CC#N) 0.11; (in CCCCCC) 0.15; (in CCOC(C)=O) 0.14; (in CO) 0.14; (in ClCCl) 0.19.
The compound `Fc1ccc(N(c2ccccc2)c2ccc3ccc4c(N(c5ccccc5)c5ccc(F)cc5)ccc5ccc2c3c54)cc1` displayed a photoluminescence quantum yield (in ClCCl) of 0.8.
For the setting “in C1COCCO1”, `COC(=O)c1ccc(/C=C2\N=C(c3ccc(OC)c(OC)c3)NC2=O)cc1` returned a photoluminescence quantum yield of 0.295.
Compound `O=C1c2ccc(N(c3ccccc3)c3ccccc3)cc2C(=O)c2ccc(N(c3ccccc3)c3ccccc3)cc21` registered a photoluminescence quantum yield (in Cc1ccccc1) of 0.2 and a photoluminescence quantum yield (in c1ccc2c(c1)c1ccccc1n2-c1ccc(-c2ccc(-n3c4ccccc4c4ccccc43)cc2)cc1) of 0.5.
With `Cc1nc2c(ccc3c2sc(/C=C/c2ccc(N(c4ccccc4)c4ccccc4)cc2)[n+]3C)s1`, the photoluminescence quantum yield (in ClC(Cl)Cl) came out at 0.
For `c1ccc(-c2nc(-c3ccc(-c4nc(-c5ccccc5)c(-c5ccccc5)[nH]4)cc3)[nH]c2-c2ccccc2)cc1`, the photoluminescence quantum yield reads like this: (in CC#N) 0.75; (in CS(C)=O) 0.94.
Consider `Cc1ccc2c(c1)c1cc(C)ccc1n2-c1c(-n2c3ccccc3c3ccccc32)cc(-c2nc(-c3ccccc3)nc(-c3ccccc3)n2)cc1-n1c2ccccc2c2ccccc21`, for which, for the setting “in O=P(c1ccccc1)(c1ccccc1)c1ccccc1Oc1ccccc1P(=O)(c1ccccc1)c1ccccc1”, the photoluminescence quantum yield was determined as 0.98.
For the compound `O=C1c2cc3ccccc3cc2C2=Nc3ccc4ccccc4[n+]3[B-](F)(F)N12`, the photoluminescence quantum yield (in ClCCl) came out at 0.93.
`CCN(CC)c1ccc2cc(/C=C/C(=O)c3cc4ccc(N(CC)CC)cc4oc3=O)c(=O)oc2c1`: the photoluminescence quantum yield by setting is: (in C1CCOC1) 0.53; (in C1COCCO1) 0.58; (in CC#N) 0.11; (in CC(C)=O) 0.27; (in CCO) 0.07; (in CCOC(C)=O) 0.57. In addition, the photoluminescence quantum yield is, setting by setting: (in CN(C)C=O) 0.01; (in CS(C)=O) 0.06; (in Cc1ccccc1) 0.68; (in ClC(Cl)Cl) 0.5; (in ClCCl) 0.59; (in O) 0.
The compound `c1csc(-c2nc3ccccc3c3cc4ccccn4c23)c1` came in with a photoluminescence quantum yield (in CS(C)=O) of 0.2.
As to `COC(=O)/C=C/c1ccc2ccc3cccc4ccc1c2c34`, the photoluminescence quantum yield reads like this: (in C1CCOC1) 0.73; (in C1COCCO1) 0.55; (in CC#N) 0.46; (in CC(C)=O) 0.51; (in CCCCCC) 0.46; (in CCOC(C)=O) 0.57. Moreover, the photoluminescence quantum yield by setting is: (in CO) 0.26; (in Cc1ccccc1) 0.47.
`CCCCCCCCOc1ccc2c3c(c4ccc(OCCCCCCCC)cc4c2c1)C(C)(C)c1ccccc1-3`: for the setting “in C1CCCCC1”, the photoluminescence quantum yield came to 0.24.
With `CC(=O)c1nc(-c2ccc(N(C)C)cc2)oc1C`, the photoluminescence quantum yield is, setting by setting: (in CC#N) 0.029; (in CCO) 0.019; (in CCOC(C)=O) 0.03; (in CCOCC) 0.016; (in ClCCl) 0.044.
`CC1=CC(C)=[N+]2C1=C(c1ccc(C)cc1)c1c(C)cc(/C=C/c3ccc4ccc5cccc6ccc3c4c56)n1[B-]2(F)F`: the photoluminescence quantum yield (in CC1CCCO1) worked out at 0.64.
In the case of `CN(C)c1ccc(C2=C3C=C(c4ccc(C#N)cc4)S[C@]34c3ccccc3[C@H]2c2ccccc24)cc1`, where the note is “in ClCCl”, the photoluminescence quantum yield stood at 0.76.
In turn, `Cc1ccc(-c2ccc(/C=C/c3ccc(Cl)cc3)cn2)nc1` registered a photoluminescence quantum yield (in CC#N) of 0.76.
For `CC(C)(C)c1ccc(-c2c(-c3cccc(N(c4ccccc4)c4ccccc4)c3)c(C#N)c(-c3cccc(N(c4ccccc4)c4ccccc4)c3)c(-c3ccc(C(C)(C)C)cc3)c2-c2ccc(C(C)(C)C)cc2)cc1`, under “in C1CCOC1”, the photoluminescence quantum yield stood at 0.072.
The compound `c1ccc(N2c3ccc4ccccc4c3-c3c4ccccc4cn[n+]3[B-]2(c2ccccc2)c2ccccc2)cc1` came in with a photoluminescence quantum yield (in Cc1ccccc1) of 0.05.
On to `CCCCCCN1C(=O)c2cccc3cc(/N=C\c4ccc5c(c4)c4ccccc4n5CC)cc(c23)C1=O`, for which the photoluminescence quantum yield (in ClC(Cl)Cl) amounted to 0.021.
`CCN(CC)c1ccc2cc(C#N)c(=N)oc2c1`: the photoluminescence quantum yield (in ClCCl) is 0.84.
Under “in CC#N”, `COc1ccc(C#Cc2ccccc2C#Cc2ccc(OC)cc2)cc1` gave a photoluminescence quantum yield of 0.83.
Turning to `COc1cc2c3c4c(c5ccc(C(C)(C)C)cc5c5cc(C(C)(C)C)cc(c2c(OC)c1OC)c45)=[N+]1C3=Nc2c3c4cc(OC)c(OC)c(OC)c4c4cc(C(C)(C)C)cc5c6cc(C(C)(C)C)ccc6c(c3c54)n2[B-]1(F)F`, the photoluminescence quantum yield (in Cc1ccccc1) came to 0.07.
`CC(C)c1cccc(C(C)C)c1N1C(=O)c2ccc3c(-c4ccccc4)c4c5ccc6c7c(ccc(c(-c8ccccc8)c4c4ccc(c2c34)C1=O)c75)C(=O)N(c1c(C(C)C)cccc1C(C)C)C6=O`: the photoluminescence quantum yield (in ClCCl) was 0.24.
Compound `CC[N+]1(CC)CN2C(=N1)C(C(=O)O)=Cc1cc(C)ccc12` had a photoluminescence quantum yield (in O) of 0.269.
On to `CCC1=C(C)C2=Cc3cscc3B(O)N2C1=O`, for which the photoluminescence quantum yield was found to be 0.97 (in CC#N); 0.18 (in CCCCCC); 0.35 (in CO); 0.87 (in CS(C)=O); 0.2 (in ClC(Cl)Cl).
Compound `O=Cc1ccc(C#CC(C#Cc2ccc(C=O)o2)=Cc2ccc(C=C(C#Cc3ccc(C=O)o3)C#Cc3ccc(C=O)o3)cc2)o1` returned a photoluminescence quantum yield (in ClC(Cl)Cl) of 0.11.

(Values after the Deep4Chem optical property database.)
